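These data come from cells grown in 96-well plates and exposed to compound for 48 hours at five concentrations. Abbreviation: GI50, concentration required for 50% inhibition of growth.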 Active and inactive are the calls of the source. Cut-off read from the data, not from the text of the source: active = GI50 up to about 1.1 µM and inactive = higher.
What was measured:
Experiment in all cases: NCI-60 cell line screen, 48 h
[1] = system: OVCAR-8
[2] = system: COLO 205
[3] = system: RPMI-8226
[4] = system: UACC-62
[5] = system: M14
[6] = system: UACC-257
[7] = system: HOP-62
[8] = system: SK-MEL-28
[9] = system: HT-29
[10] = system: HCT-15
[11] = system: HCT-116
[12] = system: SF-539
[13] = system: SF-268
[14] = system: EKVX
[15] = system: UO-31
[16] = system: SW-620
[17] = system: OVCAR-5
[18] = system: NCI-H226

Compound	GI50 [1]	GI50 [2]	GI50 [3]	GI50 [4]	GI50 [5]	GI50 [6]	GI50 [7]	GI50 [8]	GI50 [9]	GI50 [10]	GI50 [11]	GI50 [12]	GI50 [13]	GI50 [14]	GI50 [15]	GI50 [16]	GI50 [17]	GI50 [18]
CC1(C)CCC[C@@]2(C)C1C[C@H](O)[C@@]1(C)O[C@@](C)([C@H](O)CO)CCC21 (some centres undefined)	39.3 µM (inactive)	25.3 µM (inactive)	20 µM (inactive)	28.6 µM (inactive)	34.6 µM (inactive)	33.5 µM (inactive)	62.7 µM (inactive)	34.6 µM (inactive)	33 µM (inactive)	45.5 µM	33 µM (inactive)	37.2 µM (inactive)	30.4 µM (inactive)	> 100 µM (inactive)	26.1 µM (inactive)	47 µM (inactive)	39.8 µM (inactive)	28.7 µM (inactive)
Cc1cc(S(=O)(=O)O)c(NC(=O)C(=O)C2C=CCS2(=O)=O)cc1Cl (centres undefined)	> 100 µM (inactive)	> 100 µM (inactive)	> 100 µM (inactive)	> 100 µM (inactive)	> 100 µM (inactive)	> 100 µM (inactive)	> 100 µM (inactive)	> 100 µM (inactive)	> 100 µM (inactive)	> 100 µM	> 100 µM (inactive)	> 100 µM (inactive)	> 100 µM (inactive)	> 100 µM (inactive)	> 100 µM (inactive)	> 100 µM (inactive)	> 100 µM (inactive)	> 100 µM (inactive)
O=C1N(c2ccccc2)C2(O)C(=O)c3ccccc3C2(O)N1c1ccccc1 (centres undefined)	> 100 µM (inactive)	> 100 µM (inactive)	> 100 µM (inactive)	> 100 µM (inactive)	> 100 µM (inactive)	> 100 µM (inactive)	> 100 µM (inactive)	> 100 µM (inactive)	> 100 µM (inactive)	> 100 µM	> 100 µM (inactive)	> 100 µM (inactive)	> 100 µM (inactive)	> 100 µM (inactive)	> 100 µM (inactive)	> 100 µM (inactive)	> 100 µM (inactive)	> 100 µM (inactive)
COC(=O)C1=CNC(C(=O)OC)=NN1	> 100 µM (inactive)	> 100 µM (inactive)	> 100 µM (inactive)	> 100 µM (inactive)	> 100 µM (inactive)	> 100 µM (inactive)	> 100 µM (inactive)	> 100 µM (inactive)	> 100 µM (inactive)	> 100 µM	> 100 µM (inactive)	> 100 µM (inactive)	> 100 µM (inactive)	> 10 µM (inactive)	> 100 µM (inactive)	> 100 µM (inactive)	–	> 100 µM (inactive)
O=[N+]([O-])c1cc(C2SCc3nc4ccccc4n32)ccc1Cl (centres undefined)	30.3 µM (inactive)	22.1 µM (inactive)	20.3 µM (inactive)	18.6 µM (inactive)	–	22.3 µM (inactive)	–	25.9 µM (inactive)	30.8 µM (inactive)	–	17.8 µM (inactive)	27.8 µM (inactive)	20.7 µM (inactive)	31.4 µM (inactive)	18.5 µM (inactive)	41 µM (inactive)	14.3 µM (inactive)	25.1 µM (inactive)
Cc1cc(NS(=O)(=O)c2ccc(NC(=O)c3cccc4c(Nc5ccc(S(=O)(=O)N=C(N)N)cc5)c5ccccc5nc34)cc2)no1	> 100 µM (inactive)	> 100 µM (inactive)	> 100 µM (inactive)	> 100 µM (inactive)	> 100 µM (inactive)	> 100 µM (inactive)	> 100 µM (inactive)	> 100 µM (inactive)	> 100 µM (inactive)	> 100 µM	> 100 µM (inactive)	> 100 µM (inactive)	> 100 µM (inactive)	> 100 µM (inactive)	> 100 µM (inactive)	> 100 µM (inactive)	> 100 µM (inactive)	> 100 µM (inactive)
Nc1ccccc1SC(/C=C/NNC1=NN=C(c2ccccc2)C(c2ccccc2)N1)c1ccccc1 (centres undefined)	18.1 µM (inactive)	15.6 µM (inactive)	2.96 µM (inactive)	10.6 µM (inactive)	12.4 µM (inactive)	13.5 µM (inactive)	19.5 µM (inactive)	13.7 µM (inactive)	17.1 µM (inactive)	11.5 µM	–	13.2 µM (inactive)	5.64 µM (inactive)	15.4 µM (inactive)	4.45 µM (inactive)	11.7 µM (inactive)	20.8 µM (inactive)	13.7 µM (inactive)
CCCc1c[nH]c(-c2ccc(-c3cc(CCC)c(C=O)[nH]3)s2)c1	13.6 µM (inactive)	–	–	16.9 µM (inactive)	12.1 µM (inactive)	17.3 µM (inactive)	–	13.6 µM (inactive)	5.38 µM (inactive)	14.6 µM	18 µM (inactive)	18.7 µM (inactive)	18.3 µM (inactive)	–	0.0165 µM (active)	17.4 µM (inactive)	–	18.7 µM (inactive)
Cc1cc(C)cc(-n2c3nc(=O)n(C)c(=O)c-3nc3ccccc32)c1	27.6 µM (inactive)	7.29 µM (inactive)	29.7 µM (inactive)	16.7 µM (inactive)	27 µM (inactive)	15.3 µM (inactive)	45.4 µM (inactive)	–	10.3 µM (inactive)	21 µM	23.9 µM (inactive)	21.4 µM (inactive)	65.6 µM (inactive)	17.7 µM (inactive)	64.1 µM (inactive)	17 µM (inactive)	39.5 µM (inactive)	34.7 µM (inactive)
C/C(=N\NC(=S)N(C)C)c1ncc[nH]1	3.94 µM (inactive)	–	4.2 µM (inactive)	2.51 µM (inactive)	2.31 µM (inactive)	2.92 µM (inactive)	–	7.48 µM (inactive)	5.73 µM (inactive)	3.77 µM	3.56 µM (inactive)	2.77 µM (inactive)	3.56 µM (inactive)	4.51 µM (inactive)	2.1 µM (inactive)	4.59 µM (inactive)	2.55 µM (inactive)	–
O=C1c2ccccc2S[C@@H](O)[C@@H]2CCCN12	> 100 µM (inactive)	> 100 µM (inactive)	> 100 µM (inactive)	47.9 µM (inactive)	> 100 µM (inactive)	> 100 µM (inactive)	> 100 µM (inactive)	> 100 µM (inactive)	–	> 100 µM	> 100 µM (inactive)	> 100 µM (inactive)	> 100 µM (inactive)	> 100 µM (inactive)	> 100 µM (inactive)	> 100 µM (inactive)	> 100 µM (inactive)	–
CC(=O)CC(=O)Nc1ccccc1C(F)(F)F	> 100 µM (inactive)	> 100 µM (inactive)	> 100 µM (inactive)	> 100 µM (inactive)	> 100 µM (inactive)	–	> 100 µM (inactive)	> 100 µM (inactive)	–	> 100 µM	> 100 µM (inactive)	> 100 µM (inactive)	> 100 µM (inactive)	> 100 µM (inactive)	> 100 µM (inactive)	> 100 µM (inactive)	> 100 µM (inactive)	> 100 µM (inactive)
CCC1CC2C(=O)N(c3ccccc3)C(=O)C2c2[nH]c3ccccc3c21 (centres undefined)	12.2 µM (inactive)	22 µM (inactive)	22.5 µM (inactive)	19.5 µM (inactive)	17.1 µM (inactive)	–	–	38.6 µM (inactive)	22.2 µM (inactive)	60.8 µM	–	–	24.5 µM (inactive)	23.2 µM (inactive)	31.6 µM (inactive)	46.1 µM (inactive)	> 100 µM (inactive)	11.4 µM (inactive)
CCN(CC)C(=O)c1c(N2CCOCC2)cc(N(CC)CC)oc1=O	> 100 µM (inactive)	> 100 µM (inactive)	> 100 µM (inactive)	> 100 µM (inactive)	> 100 µM (inactive)	> 100 µM (inactive)	> 100 µM (inactive)	> 100 µM (inactive)	> 100 µM (inactive)	> 100 µM	> 100 µM (inactive)	> 100 µM (inactive)	> 100 µM (inactive)	> 100 µM (inactive)	> 100 µM (inactive)	> 100 µM (inactive)	–	> 100 µM (inactive)
COc1ccc(N2C(=O)c3c(c4[nH]c5ccc(OC)cc5c4c4ccc(C(C)(C)C)cc34)C2=O)cc1	92.7 µM (inactive)	> 100 µM (inactive)	> 100 µM (inactive)	–	> 100 µM (inactive)	> 100 µM (inactive)	> 100 µM (inactive)	> 100 µM (inactive)	> 100 µM (inactive)	> 100 µM	> 100 µM (inactive)	> 100 µM (inactive)	> 100 µM (inactive)	> 100 µM (inactive)	> 100 µM (inactive)	–	> 100 µM (inactive)	> 100 µM (inactive)
COC(=O)NN=C1C(C)(C)C(=NNC(=O)OC)C1(C)C	> 41.2 µM (inactive)	> 41.6 µM (inactive)	–	> 100 µM (inactive)	> 100 µM (inactive)	> 100 µM (inactive)	> 100 µM (inactive)	> 100 µM (inactive)	> 36.9 µM (inactive)	> 90.6 µM	> 45.5 µM (inactive)	> 100 µM (inactive)	> 84.1 µM (inactive)	> 100 µM (inactive)	> 100 µM (inactive)	> 100 µM (inactive)	> 100 µM (inactive)	> 100 µM (inactive)
Clc1ccc(C[P+]2(c3ccccc3)CCCCC2)cc1.[O-][Cl+3]([O-])([O-])[O-]	> 100 µM (inactive)	17.9 µM (inactive)	32.2 µM (inactive)	37.2 µM (inactive)	53.8 µM (inactive)	28.2 µM (inactive)	> 100 µM (inactive)	62.8 µM (inactive)	32 µM (inactive)	> 100 µM	60.1 µM (inactive)	> 100 µM (inactive)	–	> 100 µM (inactive)	> 100 µM (inactive)	80 µM (inactive)	> 100 µM (inactive)	> 100 µM (inactive)

Reference: ChEMBL document CHEMBL1201862, “PubChem BioAssay data set” (2004)
